Results: patent publication US6169181A, “Compounds useful to treat retroviral infections” (Pharmacia & Upjohn Company, priority 1998, dated 2001)
Values joined by “and” are separate entries in the source; they are usually repeats but may differ in a detail not shown here. Equal values may be shown once. Read-outs that look alike come from different tables or passages of the source.

Tests used:
HIV-1 protease [1] = target: T1, HIV-1 protease (Human immunodeficiency virus type 1 group M subtype B, UniProt P04585); test: biochemical; conditions: for PROTEASE % INHIB.: Table II, enzyme HIV-1
Outline: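 A substrate biotinylated at the N-terminal arginine and FITC-labelled at the C-terminal lysine was incubated with HIV-1 protease (10 μl of 0.1 μM) and compound for 1 h in the dark at room temperature. Buffer was 0.1 M sodium acetate pH 5.5, 1.0 M NaCl, 0.05% NP-40. Labelled product was separated from substrate using streptavidin beads and filtration, and the fluorescence gave percent inhibition.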

HIV-1 protease [2] = target: T1, HIV-1 protease; test: biochemical
Outline: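 Biotinylated, FITC-labelled peptide substrate cleaved in 0.1 M sodium acetate pH 5.5, 1.0 M NaCl, 0.05% NP-40, room temperature. Filtered labelled product read by fluorescence; nonlinear least-squares fit.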

[3] = Table I, Dose 0.123 μM, read-out: Protease % Inhib
[4] = Table I, Dose 0.370 μM, read-out: Protease % Inhib
[5] = Table I, Dose 1.100 μM, read-out: Protease % Inhib
[6] = Table I, Dose 3.300 μM, read-out: Protease % Inhib
[7] = Table I, Dose 10.000 μM, read-out: Protease % Inhib
[8] = Table I, Dose 30.000 μM, read-out: Protease % Inhib
[9] = Table I, read-out: HIV Protease FITC Assay Ki

CCCC1(CCC)CC(O)=C(C(CC)c2cccc(NS(=O)(=O)c3cn(C)cn3)c2)C(=O)O1 (centres unmarked) [Example 44, N-[3-[1-(4-hydroxy-2-oxo-6,6-dipropyl-5,6-dihydro-2H-pyran-3-yl)-propyl]-phenyi]-1-methyl-1H-imidazolesulfonamide]
inhibition at 0.123 µM (HIV-1 protease [1]; [3]): 98.4%
inhibition at 0.37 µM (HIV-1 protease [1]; [4]): 114%
inhibition at 1.1 µM (HIV-1 protease [1]; [5]): 120%
inhibition at 3.3 µM (HIV-1 protease [1]; [6]): 113%
inhibition at 10 µM (HIV-1 protease [1]; [7]): 102%
inhibition at 30 µM (HIV-1 protease [1]; [8]): 80%
Ki (HIV-1 protease [2]; [9]): 1.8 nM

CCC(CC1CCCOC1)c1cc(O)c(C(c2cccc(NS(=O)(=O)c3cccc4cccnc34)c2)C2CC2)c(=O)o1 (centres unmarked) [Example 145A, N-(3-[Cyclopropyl[4-hydroxy-2-oxo-6-[1-[(tetrahydro-2H-pyran-3-yl)methyl]propyl]-2H-pyran-3-yl]methyl]phenyl]-8-quinolinesulfonamide]
inhibition at 0.123 µM (HIV-1 protease [1]; [3]): 109%
inhibition at 0.37 µM (HIV-1 protease [1]; [4]): 111%
inhibition at 1.1 µM (HIV-1 protease [1]; [5]): 119%
inhibition at 3.3 µM (HIV-1 protease [1]; [6]): 115%
inhibition at 10 µM (HIV-1 protease [1]; [7]): 113%
inhibition at 30 µM (HIV-1 protease [1]; [8]): 114%
Ki (HIV-1 protease [2]; [9]): 1.1 nM

O=c1oc(C(CC2CC2)CC2CC2)cc(O)c1C(c1cccc(NS(=O)(=O)c2ncc[nH]2)c1)C1CC1 (centres unmarked) [Example 102, N-(3-{Cyclopropyl-[6-(2-cyclopropyl-1-cyclopropylmethyl-ethyl)-4-hydroxy-2-oxo-2H-pyran-3-yl]-methyl}-phenyl)-1H-imidazole-2-sulfonamide]
inhibition at 0.123 µM (HIV-1 protease [1]; [3]): 87.1%
inhibition at 0.37 µM (HIV-1 protease [1]; [4]): 92.7%
inhibition at 1.1 µM (HIV-1 protease [1]; [5]): 102%
inhibition at 3.3 µM (HIV-1 protease [1]; [6]): 110%
inhibition at 10 µM (HIV-1 protease [1]; [7]): 117%
inhibition at 30 µM (HIV-1 protease [1]; [8]): 108%
Ki (HIV-1 protease [2]; [9]): 0.7 nM

CC(C)CC(c1cccc(NS(=O)(=O)c2cn(C)cn2)c1)c1c(O)c2c(oc1=O)CCCCCC2 (single isomer, unassigned) [Example 8, (R or S)-N-[3-1-(5,6,7,8,9,10-Hexahydro-4-hydroxy-2-oxo-2H-cycloocta[b]pyran-3-yl)-3-methylbutyl]phenyl]-1-methyl-1H-imidazole-4-sulfonamide]
inhibition at 0.123 µM (HIV-1 protease [1]; [3]): 99.2%
inhibition at 0.37 µM (HIV-1 protease [1]; [4]): 110%
inhibition at 1.1 µM (HIV-1 protease [1]; [5]): 103%
inhibition at 3.3 µM (HIV-1 protease [1]; [6]): 110%
inhibition at 10 µM (HIV-1 protease [1]; [7]): 105%
inhibition at 30 µM (HIV-1 protease [1]; [8]): 102%
Ki (HIV-1 protease [2]; [9]): 0.35 nM

CC[C@@H](Cc1ccccc1)c1cc(O)c(C(c2cccc(NS(=O)(=O)c3cn(C)cn3)c2)C2CC2)c(=O)o1 (single isomer, unassigned) [Example 139, N-(3-(R or S)-{Cyclopropyl-[6-(1-(S)-ethylphenethyl)-4-hydroxy-2-oxo-2H-pyran-3-yl]-methyl}-phenyl)-1-methyl-1H-imidazole-4-sulfonamide]
inhibition at 0.123 µM (HIV-1 protease [1]; [3]): 98.3%
inhibition at 0.37 µM (HIV-1 protease [1]; [4]): 101%
inhibition at 1.1 µM (HIV-1 protease [1]; [5]): 105%
inhibition at 3.3 µM (HIV-1 protease [1]; [6]): 99.3%
inhibition at 10 µM (HIV-1 protease [1]; [7]): 99.3%
inhibition at 30 µM (HIV-1 protease [1]; [8]): 103%
Ki (HIV-1 protease [2]; [9]): 1.89 nM

CC[C@H](Cc1ccccc1)c1cc(O)c(C(c2cccc(NS(=O)(=O)c3cn(C)cn3)c2)C2CC2)c(=O)o1 (single isomer, unassigned) [Example 138, N-(3-(R or S)-[Cyclopropyl-[6-(l-(R)-ethylphenethyl)-4-hydroxy-2-oxo-2H-pyran-3-yl]-methyl}-phenyl)-1-methyl-1H-imidazole-4-sulfonamide]
inhibition at 0.123 µM (HIV-1 protease [1]; [3]): 101%
inhibition at 0.37 µM (HIV-1 protease [1]; [4]): 95.5%
inhibition at 1.1 µM (HIV-1 protease [1]; [5]): 101%
inhibition at 3.3 µM (HIV-1 protease [1]; [6]): 99.6%
inhibition at 10 µM (HIV-1 protease [1]; [7]): 94.8%
inhibition at 30 µM (HIV-1 protease [1]; [8]): 105%
Ki (HIV-1 protease [2]; [9]): 0.73 nM and 1.4 nM

CCCC1(CCc2ccccc2)CC(O)=C(C(CC)c2cccc(NS(=O)(=O)c3cn(C)cn3)c2)C(=O)O1 (centres unmarked) [Example 41, N-[3-[1-(4-hydroxy-2-oxo-6-phenethyl-6-propyl-5,6-dihydro-2H-pyran-3-yl)-propyl]-phenyl]-1-methyl-1H-imidazole-4-sulfonamide]
inhibition at 0.123 µM (HIV-1 protease [1]; read-out: Protease % Inhib): 103%
inhibition at 0.37 µM (HIV-1 protease [1]; read-out: Protease % Inhib): 102%
inhibition at 1.1 µM (HIV-1 protease [1]; read-out: Protease % Inhib): 104%
inhibition at 3.3 µM (HIV-1 protease [1]; read-out: Protease % Inhib): 101%
inhibition at 10 µM (HIV-1 protease [1]; read-out: Protease % Inhib): 85.9%
inhibition at 30 µM (HIV-1 protease [1]; read-out: Protease % Inhib): 72.8%
Ki (HIV-1 protease [2]; read-out: HIV Protease FITC Assay Ki): 3.17 nM

CCCC1(CCc2ccccc2)CC(O)=C(C(c2cccc(NS(=O)(=O)c3cccc4cccnc34)c2)C2CC2)C(=O)O1 (centres unmarked) [Example 60, N-[3-[1-(4-Hydroxy-2-oxo-6-phenethyl-6-propyl-5,6-dihydro-2H-pyran-3-yl)-cyclopropylmethyl]-phenyl]-8-quinolinesulfonamide]
inhibition at 0.123 µM (HIV-1 protease [1]; [3]): 73%
inhibition at 0.37 µM (HIV-1 protease [1]; [4]): 94.3%
inhibition at 1.1 µM (HIV-1 protease [1]; [5]): 101%
inhibition at 3.3 µM (HIV-1 protease [1]; [6]): 101%
inhibition at 10 µM (HIV-1 protease [1]; [7]): 106%
inhibition at 30 µM (HIV-1 protease [1]; [8]): 107%
Ki (HIV-1 protease [2]; [9]): 0.95 nM

O=C(O)c1ccc(S(=O)(=O)Cc2cccc(C(c3c(O)c4c(oc3=O)CCCCCC4)C3CC3)c2)cc1 (centres unmarked) [Example 14, 3-[cyclopropyl[3-[(4-carboxyphenylsulfonyl)methyl]phenyl]methyl]-5,6,7,8,9,10-hexahydro-4-hydroxy-2H-cycloocta[b]pyran-2-one]
inhibition at 0.123 µM (HIV-1 protease [1]; [3]): 65.7%
inhibition at 0.37 µM (HIV-1 protease [1]; [4]): 88%
inhibition at 1.1 µM (HIV-1 protease [1]; [5]): 96.8%
inhibition at 3.3 µM (HIV-1 protease [1]; [6]): 96.6%
inhibition at 10 µM (HIV-1 protease [1]; [7]): 102%
inhibition at 30 µM (HIV-1 protease [1]; [8]): 106%
Ki (HIV-1 protease [2]; [9]): 6.88 nM

CCC(CCBr)c1cc(O)c(C(c2cccc(NS(=O)(=O)c3cn(C)cn3)c2)C2CC2)c(=O)o1 (centres unmarked) [Example 108, N-(3-{[6-(3-Bromo-1-ethyl-propyl)-4-hydroxy-2-oxo-2H-pyran-3-yl]-cyclopropyl-methyl}-phenyl)-1-methyl-1H-imidazole-4-sulfonamide]
inhibition at 0.123 µM (HIV-1 protease [1]; [3]): 103%
inhibition at 0.37 µM (HIV-1 protease [1]; [4]): 102%
inhibition at 1.1 µM (HIV-1 protease [1]; [5]): 102%
inhibition at 3.39 µM (HIV-1 protease [1]; Table I, Dose 3.390 μM, read-out: Protease % Inhib): 102%
inhibition at 10 µM (HIV-1 protease [1]; [7]): 108%
inhibition at 30 µM (HIV-1 protease [1]; [8]): 106%
Ki (HIV-1 protease [2]; [9]): 0.16 nM

CCCC1(CCC)CC(O)=C(C(CC)c2cccc(NS(=O)(=O)c3ccc(F)cc3)c2)C(=O)O1 (centres unmarked) [Example 45, 4-Fluoro-N-[3-[1-(4-hydroxy-2-oxo-6,6-dipropyl-5,6-dihydro-2H-pyran-3-yl)-propyl]-phenyl]-benzenesulfonamide]
inhibition at 0.123 µM (HIV-1 protease [1]; [3]): 82.2%
inhibition at 0.37 µM (HIV-1 protease [1]; [4]): 94.4%
inhibition at 1.1 µM (HIV-1 protease [1]; [5]): 101%
inhibition at 3.3 µM (HIV-1 protease [1]; [6]): 103%
inhibition at 10 µM (HIV-1 protease [1]; [7]): 89.8%
inhibition at 30 µM (HIV-1 protease [1]; [8]): 67.5%
Ki (HIV-1 protease [2]; [9]): 4.78 nM

CCC(Cc1ccccc1)c1cc(O)c(C(c2cccc(NS(=O)(=O)c3cn(C)cn3)c2)C2CC2)c(=O)o1 (centres unmarked) [Example 136, N-(3-{Cyclopropyl-[6-(1-ethylphenethyl)-4-hydroxy-2-oxo-2H-pyran-3-yl]-methyl}-phenyl)-1-methyl-1H-imidazole-4-sulfonamide]
inhibition at 0.123 µM (HIV-1 protease [1]; [3]): 71.7%
inhibition at 0.37 µM (HIV-1 protease [1]; [4]): 85.7%
inhibition at 1.1 µM (HIV-1 protease [1]; [5]): 99%
inhibition at 3.3 µM (HIV-1 protease [1]; [6]): 101%
inhibition at 10 µM (HIV-1 protease [1]; [7]): 102%
inhibition at 30 µM (HIV-1 protease [1]; [8]): 102%
Ki (HIV-1 protease [2]; [9]): 1.32 nM

CC(C)(C)C(C1=C(O)CC(CCc2ccccc2)(CCc2ccccc2)OC1=O)c1cccc(NS(=O)(=O)c2ccc(N)cn2)c1 (single isomer, unassigned) [Example 355, N-[3-{1(R or S)-(4-Hydroxy-5,6-dihydro-2-oxo-6,6-bis(2-phenylethyl)-2H-pyran-3-yl)-2,2-dimethylpropyl}phenyl]-5-aminopyridine-2-sulfonamide]
PROTEASE % INHIB. (HIV-1 protease [1]; DOSE 0.123 (unit not given)): < 10%
PROTEASE % INHIB. (HIV-1 protease [1]; DOSE 0.370 (unit not given)): < 10%
PROTEASE % INHIB. (HIV-1 protease [1]; DOSE 1.100 (unit not given)): < 10%
PROTEASE % INHIB. (HIV-1 protease [1]; DOSE 3.300 (unit not given)): 20.72%
PROTEASE % INHIB. (HIV-1 protease [1]; DOSE 10.000 (unit not given)): 46.66%
PROTEASE % INHIB. (HIV-1 protease [1]; DOSE 30.000 (unit not given)): 67.82%
Ki (HIV-1 protease [2]; Table II, enzyme HIV-1, read-out: FITC KI): 700 nM

CCC(CCNS(=O)(=O)c1cn(C)cn1)c1cc(O)c(C(c2cccc(NS(=O)(=O)c3cn(C)cn3)c2)C2CC2)c(=O)o1 (centres unmarked) [Example 107, N-(3-{Cyclopropyl-[6-(1-ethyl-3-{1-methyl-1H-imidazole-4-sulfonylamino}-propyl)-4-hydroxy-2-oxo-2H-pyran-3-yl]-methyl}-phenyl)-1-methyl-1H-imidazole-4-sulfonamide]
inhibition at 0.123 µM (HIV-1 protease [1]; [3]): 92.7%
inhibition at 0.37 µM (HIV-1 protease [1]; [4]): 99.2%
inhibition at 1.1 µM (HIV-1 protease [1]; [5]): 105%
inhibition at 3.3 µM (HIV-1 protease [1]; [6]): 103%
inhibition at 10 µM (HIV-1 protease [1]; [7]): 110%
inhibition at 30 µM (HIV-1 protease [1]; [8]): 103%
Ki (HIV-1 protease [2]; [9]): 0.89 nM and 0.7 nM
